Publication PMC4571170 (ACS Central Science, 2015)
Residue numbers refer to the chain shown, from its start. Names may count otherwise.

T1: RNase A (Bos taurus, UniProt P61823)
T1 sequence (P61823 27-150): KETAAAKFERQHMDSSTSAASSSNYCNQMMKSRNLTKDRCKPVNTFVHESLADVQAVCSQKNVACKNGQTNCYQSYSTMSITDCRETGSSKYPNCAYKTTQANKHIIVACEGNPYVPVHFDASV

B1: DRRRD RNase 1: RI-evasive cytotoxic variant of RNase 1 (R39D/N67R/N88R/G89R/R91D) (protein, UniProt P07998 29-156, looked up, variant R39D N67R N88R G89R R91D)
Ribonuclease pancreatic: KESRAKKFQRQHMDSDSSPSSSSTYCNQMMRRRNMTQGDCKPVNTFVHEPLVDVQNVCFQEKVTCKRGQGNCYKSNSSMHITDCRLTRRSDYPNCAYRTSPKERHIIVACEGSPYVPVHFDASVEDST
B2: RNase A (G88R): RI-evasive cytotoxic G88R variant of RNase A (protein, UniProt P61823 27-150, looked up, variant G88R)
Ribonuclease pancreatic: T1 sequence (P61823 27-150) with G88R

Tests used:
RNase A = target: T1, RNase A; assay: Glycan array screening for RNase A ligands; assay type: binding, cow; conditions: printed glycan array, Figure 1
human leukemia cells = conditions: read-out: IC50 (cytotoxicity), ref [6],[15]; cited from earlier work

Row | Molecule | binding of RNase A to glycan in the array (in words) (RNase A) | IC50 (human leukemia cells)
1 | GalNAcβ1–3Galα1–4Galβ1–4GlcNAc [glycan 90] | did bind | 
2 | CC(=O)NC1C(OC2C(O)C(CO)OC(OC3C(CO)OC(OC4C(CO)OC(O)C(O)C4O)C(O)C3O)C2O)OC(CO)C(O)C1OC1OC(CO)C(O)C(O)C1O (stereo not shown) [glycan 127, Galβ1–3GalNAcβ1–3Galα1–4Galβ1–4Glc] | little affinity | 
3 | B1 |  | 10.8 µM
4 | B2 |  | 6.2 µM
